Source: patent publication US8263762B2, “Alkoxy-carbonyl-amino-alkynyl-adenosine compounds and derivatives thereof as A2AR agonists” (Dogwood Pharmaceuticals, Inc., priority 2009, dated 2012)

How the values were obtained:
[1] = molecular target: T1, recombinant human A2A receptors (Homo sapiens, UniProt P29274); test: Radioligand binding assay, A2A receptor; settings: recombinant human A2A receptors in Sf9 cell membranes; competition binding
T1 construct: made in house; host or cells: Sf9 insect cells, viral (baculovirus) infection; membranes
Procedure: Cell culture and membrane preparation. Sf9 cells were cultured in Grace's medium supplemented with 10% fetal bovine serum, 2.5 μg/ml amphotericin B and 50 μg/ml gentamycin in an atmosphere of 50% N2/50% O2. Viral infection was performed at a density of 2.5×10^6 cells/mL with a multiplicity of infection of two for each virus used. Infected cells were harvested 3 days post-infection and washed twice in insect PBS (PBS pH 6.3). Cells were then resuspended in lysis buffer (20 mM HEPES pH 7.5, 150 mM NaCl, 3 mM MgCl2, 1 mM β-mercaptoethanol (BME), 5 μg/mL leupeptin, 5 μg/mL pepstatin A, 1 μg/mL aprotinin, and 0.1 mM PMSF) and snap frozen for storage at −80° C. Cells were thawed on ice, brought to 30 mL total volume in lysis buffer, and burst by N2 cavitation (600 psi for 20 minutes). A low-speed centrifugation was performed to remove any unlysed cells (1000×g for 10 minutes), followed by a high-speed centrifugation (17,000×g for 30 minutes). The pellet from the final centrifugation was homogenized in buffer containing 20 mM HEPES pH 8, 100 mM NaCl, 1% glycerol, 2 μg/mL leupeptin, 2 μg/mL pepstatin A, 2 μg/mL Aprotinin, 0.1 mM PMSF, and 10 μM GDP using a small glass homogenizer followed by passage through a 26 gauge needle. Membranes were aliquoted, snap frozen in liquid N2, and stored at −80° C. Membranes from cells stably expressing the human A1 AR(CHO K1 cells) or A3 AR (HEK 293 cells) were prepared as described (Robeva et al., 1996).
Radioligand Binding Assays. Radioligand binding to recombinant human A2A receptors in Sf9 cell membranes was performed using either the radiolabeled agonist, ^125I-APE (Luthin et al., 1995) or the radiolabeled antagonist, ^125I-ZM241385 (^125I-ZM). To detect the high affinity, GTPγS-sensitive state of A1 and A3 AR, we used the agonist, ^125I-ABA (Linden et al., 1985; Linden et al., 1993). Binding experiments were performed in triplicate with 5 μg (A2A) or 25 μg (A1 and A3) membrane protein in a total volume of 0.1 mL HE buffer (20 mM HEPES and 1 mM EDTA) withl U/mL adenosine deaminase and 5 mM MgCl2 with or without 50 μM GTPγS. Membranes were incubated with radioligands at room temperature for three hours (for agonists) or two hours (for antagonists) in Millipore Multiscreen® 96-well GF/C filter plates and assays were terminated by rapid filtration on a cell harvester (Brandel, Gaithersburg, Md.) followed by 4×150 μL washes over 30 seconds with ice cold 10 mM Tris-HCl, pH 7.4, 10 mM MgCl2. Nonspecific binding was measured in the presence of 50 μM NECA. Competition binding assays were performed as described (Robeva et al., 1996) using 0.5-1 nM ^125I-APE, ^125I-ZM241385, or ^125I-ABA. Sometimes it is important to change pipette tips following each serial dilution to prevent transfer on tips of potent hydrophobic compounds. The Ki values for competing compound binding to a single site were derived from IC50 values with correction for radioligand and competing compound depletion as described previously (Linden, 1982). • Linden J (1982) Calculating the Dissociation Constant of an Unlabeled Compound From the Concentration Required to Displace Radiolabel Binding by 50%. J Cycl Nucl Res 8: 163-172. • Linden J, Patel A and Sadek S (1985) [^125I]Aminobenzyladenosine, a New Radioligand With Improved Specific Binding to Adenosine Receptors in Heart. Circ Res 56: 279-284. • Linden J, Taylor H E, Robeva A S, Tucker A L, Stehle J H, Rivkees S A, Fink J S and Reppert S M (1993) Molecular Cloning and Functional Expression of a Sheep A3 Adenosine Receptor with Widespread Tissue Distribution. Mol Pharmacol 44: 524-532. • Luthin D R, Olsson R A, Thompson R D, Sawmiller D R and Linden J (1995) Characterization of Two Affinity States of Adenosine A2A Receptors With a New Radioligand, 2-[2-(4-Amino-3-[^125I]Iodophenyl)Ethylamino] Adenosine. Mol Pharmacol 47: 307-313. • Robeva A S, Woodard R, Luthin D R, Taylor H E and Linden J (1996) Double Tagging Recombinant A1- and A2A-Adenosine Receptors With Hexahistidine and the FLAG Epitope. […]

[2] = system: human neutrophils; test: Neutrophil oxidative activity (luminol enhanced chemiluminescence); assay type: cell-based; settings: oxidative activity assay, purified human neutrophils, fMLP-stimulated chemiluminescence, read-out: Functional Activity
From the text: Chemiluminescence Methods: Luminol enhanced chemiluminescence, a measure of neutrophil oxidative activity, is dependent upon both superoxide production and mobilization of the granule enzyme myeloperoxidase. The light is emitted from unstable high-energy oxygen species such as hypochlorous acid and singlet oxygen generated by activated neutrophils.
Purified human neutrophils (2×10^6/ml) suspended in Hanks balanced salt solution containing 0.1% human serum albumin (HA), adenosine deaminase (1 U/mL) and rolipram (100 nM) were incubated (37 C) in a water bath for 15 min with or without rhTNF (10 U/ml). Following incubation 100 µL aliquots of the PMN were transferred to wells (White walled clear bottom 96 well tissue culture plates Costar #3670; 2 wells/condition) containing […] and luminol (final concentration […]) with or without adenosine agonist (final agonist concentrations 0.01-1000 nM). The plate was incubated 5 min (37 C) and then fMLP (50 l in HA; final concentration […]) was added to all wells.
Peak chemiluminescence was determined with a Victor 1420 Multilabel Counter in the chemiluminescence mode using the Wallac Workstation software. Data are presented as peak chemiluminescence as percent of activity in the absence of an adenosine agonist. The EC50 was determined using PRISM software. All compounds were tested with PMNs from three separate donors.
Effect of A2A Agonists on Neutrophil Oxidative Activity: f-met-leu-phe (fMLP), luminol, superoxide dismutase, cytochrome C, fibrinogen, adenosine deaminase, and trypan blue were obtained from Sigma Chemical. Ficoll-hypaque was purchased from ICN (Aurora, Ohio), and Cardinal Scientific (Santa Fe, N. Mex.) and Accurate Chemicals and Scientific (Westerbury, N.Y.). Endotoxin (lipopolysaccharide; E. coli K235) was from List Biologicals (Campbell, Calif.). Hanks balanced salt solution (HBSS), and limulus amebocyte lysate assay kit were from BioWittaker (Walkersville, Md.). Human serum albumin (HSA) was from Cutter Biological (Elkhart, Ind.). Recombinant human tumor necrosis factor-α was supplied by Dianippon Pharmaceutical Co. Ltd. (Osaka, Japan). ZM241385 (4-(2-[7-amino-2-(2-furyl)[1,2,4]triazolo[2,3-a][1,3,5]triazin-5-yl amino]ethyl)phenol) was a gift from Simon Poucher, Zeneca Pharmaceuticals, Cheshire, UK. Stock solutions (1 mM and 10 mM in DMSO) were made and stored at −20° C.
Human neutrophil preparation: Purified neutrophils (98% neutrophils and >95% viable by trypan blue exclusion) containing <1 platelet per 5 neutrophils and <50 pg/ml endotoxin (limulus amebocyte lysate assay) were obtained from normal heparinized (10 U/ml) venous blood by a one step Ficoll-hypaque separation procedure (A. Ferrante et al., J. Immunol. Meth., 36, 109 (1980)). […]

T1 sequence (P29274 whole entry): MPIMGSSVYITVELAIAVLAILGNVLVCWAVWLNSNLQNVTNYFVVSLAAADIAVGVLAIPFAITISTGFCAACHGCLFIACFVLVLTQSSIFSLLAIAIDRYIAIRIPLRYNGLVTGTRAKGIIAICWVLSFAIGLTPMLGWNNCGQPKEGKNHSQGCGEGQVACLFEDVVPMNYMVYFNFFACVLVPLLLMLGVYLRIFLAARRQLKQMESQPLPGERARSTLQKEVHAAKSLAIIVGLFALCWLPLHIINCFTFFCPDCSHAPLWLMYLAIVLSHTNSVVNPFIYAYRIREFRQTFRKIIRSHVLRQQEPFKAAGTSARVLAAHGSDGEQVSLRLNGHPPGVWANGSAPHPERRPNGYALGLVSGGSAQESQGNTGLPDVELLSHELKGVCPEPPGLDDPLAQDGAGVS

Row | SMILES | Ki [1] [µM] | EC50 [2] [µM]
1 | COC(=O)N(C)CC#Cc1nc(N)c2ncn([C@@H]3O[C@H](C(=O)NC4CC4)C(O)C3O)c2n1 (some centres unmarked) [Example 1, N-Cyclopropyl 2-{3-[methoxycarbonyl(methyl)amino]propyn-1-yl}adenosine-5′-uronamide] | < 0.01 | < 0.01
2 | CN(CC#Cc1nc(N)c2ncn([C@@H]3O[C@H](C(=O)NC4CC4)C(O)C3O)c2n1)C(=O)Oc1ccccc1 (some centres unmarked) [Example 2, N-Cyclopropyl 2-{3-[phenoxycarbonyl(methyl)amino]propyn-1-yl}adenosine-5′-uronamide] | < 0.01 | < 0.01
3 | CN(CC#Cc1nc(N)c2ncn([C@@H]3O[C@H](C(=O)NC4CC4)C(O)C3O)c2n1)C(=O)OCCOCc1ccccc1 (some centres unmarked) [Example 3, N-Cyclopropyl 2-{3-[2-((benzyloxy)ethoxycarbonyl)(methyl)amino]propyn-1-yl}adenosine-5′-uronamide] | < 0.01 | < 0.01
4 | CN(CC#Cc1nc(N)c2ncn([C@@H]3O[C@H](C(=O)NC4CC4)C(O)C3O)c2n1)C(=O)Oc1ccc(F)cc1 (some centres unmarked) [Example 4, N-Cyclopropyl 2-{3-[4-fluorophenoxycarbonyl(methyl)amino]propyn-1-yl}adenosine-5′-uronamide] | 0.011 to 0.1 | < 0.01
5 | CCN(CC#Cc1nc(N)c2ncn([C@@H]3O[C@H](C(=O)NC4CC4)C(O)C3O)c2n1)C(=O)OC (some centres unmarked) [Example 6, N-Cyclopropyl 2-{3-[4-(ethyl(methoxycarbonyl)amino)]propyn-1-yl}adenosine-5′-uronamide] | < 0.01 | < 0.01
6 | CCCN(CC#Cc1nc(N)c2ncn([C@@H]3O[C@H](C(=O)NC4CC4)C(O)C3O)c2n1)C(=O)OC (some centres unmarked) [Example 7, N-Cyclopropyl 2-{3-[4-(methoxycarbonyl(propyl)amino)]propyn-1-yl}adenosine-5′-uronamide] | < 0.01 | < 0.01
7 | COC(=O)N(CC#Cc1nc(N)c2ncn([C@@H]3O[C@H](C(=O)NC4CC4)C(O)C3O)c2n1)C(C)C (some centres unmarked) [Example 8, N-Cyclopropyl 2-{3-[4-(isopropyl(methoxycarbonyl)amino)]propyn-1-yl}adenosine-5′-uronamide] | < 0.01 | < 0.01
8 | COC(=O)N(CC#Cc1nc(N)c2ncn([C@@H]3O[C@H](C(=O)NC4CC4)C(O)C3O)c2n1)CC(C)C (some centres unmarked) [Example 9, N-Cyclopropyl 2-{3-[4-(isobutyl(methoxycarbonyl)amino)]propyn-1-yl}adenosine-5′-uronamide] | < 0.01 | < 0.01
9 | COC(=O)N(CC#Cc1nc(N)c2ncn([C@@H]3O[C@H](C(=O)NC4CC4)C(O)C3O)c2n1)Cc1ccccc1 (some centres unmarked) [Example 10, N-Cyclopropyl 2-{3-[4-(benzyl(methoxycarbonyl)amino)]propyn-1-yl}adenosine-5′-uronamide] | 0.011 to 0.1 | > 0.1
10 | COC(=O)N(CC#Cc1nc(N)c2ncn([C@@H]3O[C@H](C(=O)NC4CC4)C(O)C3O)c2n1)C1CC1 (some centres unmarked) [Example 11, N-Cyclopropyl 2-{3-[4-(cyclopropyl(methoxycarbonyl)amino)]propyn-1-yl}adenosine-5′-uronamide] | < 0.01 | < 0.01
11 | COC(=O)N(CC#Cc1nc(N)c2ncn([C@@H]3O[C@H](C(=O)NC4CC4)C(O)C3O)c2n1)CC1CC1 (some centres unmarked) [Example 12, N-Cyclopropyl 2-{3-[4-(cyclopropylmethyl(methoxycarbonyl)amino)]propyn-1-yl}adenosine-5′-uronamide] | < 0.01 | < 0.01

More lines, now with the values ahead:

Row | Ki [1] [µM] | EC50 [2] [µM] | SMILES
12 | 0.011 to 0.1 | < 0.01 | COC(=O)N(CC#Cc1nc(N)c2ncn([C@@H]3O[C@H](C(=O)NC4CC4)C(O)C3O)c2n1)C1CCC1 (some centres unmarked) [Example 13, N-Cyclopropyl 2-{3-[4-(cyclobutyl(methoxycarbonyl)amino)]propyn-1-yl}adenosine-5′-uronamide]
13 | < 0.01 | < 0.01 | COC(=O)N(CC#Cc1nc(N)c2ncn([C@@H]3O[C@H](C(=O)NC4CC4)C(O)C3O)c2n1)C1CCCC1 (some centres unmarked) [Example 14, N-Cyclopropyl 2-{3-[4-(cyclopentyl(methoxycarbonyl)amino)]propyn-1-yl}adenosine-5′-uronamide]
14 | < 0.01 | < 0.01 | COCCN(CC#Cc1nc(N)c2ncn([C@@H]3O[C@H](C(=O)NC4CC4)C(O)C3O)c2n1)C(=O)OC (some centres unmarked) [Example 15, N-Cyclopropyl 2-{3-[4-(methoxycarbonyl(2-methoxyethyl)amino)]propyn-1-yl}adenosine-5′-uronamide]
15 | 0.011 to 0.1 | < 0.01 | COCCCN(CC#Cc1nc(N)c2ncn([C@@H]3O[C@H](C(=O)NC4CC4)C(O)C3O)c2n1)C(=O)OC (some centres unmarked) [Example 16, N-Cyclopropyl 2-{3-[4-(methoxycarbonyl(3-methoxypropyl)amino)]propyn-1-yl}adenosine-5′-uronamide]
16 | 0.011 to 0.1 | > 0.1 | CCOCCCN(CC#Cc1nc(N)c2ncn([C@@H]3O[C@H](C(=O)NC4CC4)C(O)C3O)c2n1)C(=O)OC (some centres unmarked) [Example 17, N-Cyclopropyl 2-{3-[4-((3-ethoxypropyl)(methoxycarbonyl)amino)]propyn-1-yl}adenosine-5′-uronamide]
